According to ChEMBL document CHEMBL4715697, “Synthesis and biological activity of benzamide DNA minor groove binders” (2016):

Experiments:
Type in all cases: functional
Details in all cases: read-out: Activity
HCT-116 = assay: Growth inhibition of human HCT-116 cells assessed as cell growth at 10 uM incubated for 48 hrs by sulforhodamine B assay relative to control
OVCAR-5 = assay: Growth inhibition of human OVCAR-5 cells assessed as cell growth at 10 uM incubated for 48 hrs by sulforhodamine B assay relative to control
NCI-H23 = assay: Growth inhibition of human NCI-H23 cells assessed as cell growth at 10 uM incubated for 48 hrs by sulforhodamine B assay relative to control
786-0 = assay: Growth inhibition of human 786-0 cells assessed as cell growth at 10 uM incubated for 48 hrs by sulforhodamine B assay relative to control
U-251 = assay: Growth inhibition of human U-251 cells assessed as cell growth at 10 uM incubated for 48 hrs by sulforhodamine B assay relative to control
NCI-H226 = assay: Growth inhibition of human NCI-H226 cells assessed as cell growth at 10 uM incubated for 48 hrs by sulforhodamine B assay relative to control
SR = assay: Growth inhibition of human SR cells assessed as cell growth at 10 uM incubated for 48 hrs by sulforhodamine B assay relative to control
NCI-H522 = assay: Growth inhibition of human NCI-H522 cells assessed as cell growth at 10 uM incubated for 48 hrs by sulforhodamine B assay relative to control
UACC-62 = assay: Growth inhibition of human UACC-62 cells assessed as cell growth at 10 uM incubated for 48 hrs by sulforhodamine B assay relative to control
T47D = assay: Growth inhibition of human T47D cells assessed as cell growth at 10 uM incubated for 48 hrs by sulforhodamine B assay relative to control
MOLT-4 = assay: Growth inhibition of human MOLT-4 cells assessed as cell growth at 10 uM incubated for 48 hrs by sulforhodamine B assay relative to control
BT-549 = assay: Growth inhibition of human BT-549 cells assessed as cell growth at 10 uM incubated for 48 hrs by sulforhodamine B assay relative to control
K562 = assay: Growth inhibition of human K562 cells assessed as cell growth at 10 uM incubated for 48 hrs by sulforhodamine B assay relative to control
SN12C = assay: Growth inhibition of human SN12C cells assessed as cell growth at 10 uM incubated for 48 hrs by sulforhodamine B assay relative to control
SK-OV-3 = assay: Growth inhibition of human SK-OV-3 cells assessed as cell growth at 10 uM incubated for 48 hrs by sulforhodamine B assay relative to control
HL-60(TB) = assay: Growth inhibition of human HL-60(TB) cells assessed as cell growth at 10 uM incubated for 48 hrs by sulforhodamine B assay relative to control
TK-10 = assay: Growth inhibition of human TK-10 cells assessed as cell growth at 10 uM incubated for 48 hrs by sulforhodamine B assay relative to control
IGROV-1 = assay: Growth inhibition of human IGROV-1 cells assessed as cell growth at 10 uM incubated for 48 hrs by sulforhodamine B assay relative to control
SNB-19 = assay: Growth inhibition of human SNB-19 cells assessed as cell growth at 10 uM incubated for 48 hrs by sulforhodamine B assay relative to control
UO-31 = assay: Growth inhibition of human UO-31 cells assessed as cell growth at 10 uM incubated for 48 hrs by sulforhodamine B assay relative to control
SK-MEL-2 = assay: Growth inhibition of human SK-MEL-2 cells assessed as cell growth at 10 uM incubated for 48 hrs by sulforhodamine B assay relative to control
NCI-H322M = assay: Growth inhibition of human NCI-H322M cells assessed as cell growth at 10 uM incubated for 48 hrs by sulforhodamine B assay relative to control
OVCAR-3 = assay: Growth inhibition of human OVCAR-3 cells assessed as cell growth at 10 uM incubated for 48 hrs by sulforhodamine B assay relative to control
OVCAR-8 = assay: Growth inhibition of human OVCAR-8 cells assessed as cell growth at 10 uM incubated for 48 hrs by sulforhodamine B assay relative to control
KM12 = assay: Growth inhibition of human KM12 cells assessed as cell growth at 10 uM incubated for 48 hrs by sulforhodamine B assay relative to control
SK-MEL-28 = assay: Growth inhibition of human SK-MEL-28 cells assessed as cell growth at 10 uM incubated for 48 hrs by sulforhodamine B assay relative to control
SW-620 = assay: Growth inhibition of human SW-620 cells assessed as cell growth at 10 uM incubated for 48 hrs by sulforhodamine B assay relative to control
NCI/ADR-RES = assay: Growth inhibition of human NCI/ADR-RES cells assessed as cell growth at 10 uM incubated for 48 hrs by sulforhodamine B assay relative to control
SNB-75 = assay: Growth inhibition of human SNB-75 cells assessed as cell growth at 10 uM incubated for 48 hrs by sulforhodamine B assay relative to control
HCT-15 = assay: Growth inhibition of human HCT-15 cells assessed as cell growth at 10 uM incubated for 48 hrs by sulforhodamine B assay relative to control
NCI-H460 = assay: Growth inhibition of human NCI-H460 cells assessed as cell growth at 10 uM incubated for 48 hrs by sulforhodamine B assay relative to control
A549 = assay: Growth inhibition of human A549/ATCC cells assessed as cell growth at 10 uM incubated for 48 hrs by sulforhodamine B assay relative to control
PC-3 = assay: Growth inhibition of human PC-3 cells assessed as cell growth at 10 uM incubated for 48 hrs by sulforhodamine B assay relative to control
EKVX = assay: Growth inhibition of human EKVX cells assessed as cell growth at 10 uM incubated for 48 hrs by sulforhodamine B assay relative to control
SK-MEL-5 = assay: Growth inhibition of human SK-MEL-5 cells assessed as cell growth at 10 uM incubated for 48 hrs by sulforhodamine B assay relative to control
MDA-MB-435 = assay: Growth inhibition of human MDA-MB-435 cells assessed as cell growth at 10 uM incubated for 48 hrs by sulforhodamine B assay relative to control
HT-29 = assay: Growth inhibition of human HT-29 cells assessed as cell growth at 10 uM incubated for 48 hrs by sulforhodamine B assay relative to control
RXF 393 = assay: Growth inhibition of human RXF 393 cells assessed as cell growth at 10 uM incubated for 48 hrs by sulforhodamine B assay relative to control
UACC-257 = assay: Growth inhibition of human UACC-257 cells assessed as cell growth at 10 uM incubated for 48 hrs by sulforhodamine B assay relative to control
RPMI-8226 = assay: Growth inhibition of human RPMI-8226 cells assessed as cell growth at 10 uM incubated for 48 hrs by sulforhodamine B assay relative to control

SMILES	growth at 10 µM (HCT-116) [%]	growth at 10 µM (OVCAR-5) [%]	growth at 10 µM (NCI-H23) [%]	growth at 10 µM (786-0) [%]	growth at 10 µM (U-251) [%]	growth at 10 µM (NCI-H226) [%]	growth at 10 µM (SR) [%]	growth at 10 µM (NCI-H522) [%]	growth at 10 µM (UACC-62) [%]	growth at 10 µM (T47D) [%]	growth at 10 µM (MOLT-4) [%]	growth at 10 µM (BT-549) [%]	growth at 10 µM (K562) [%]	growth at 10 µM (SN12C) [%]	growth at 10 µM (SK-OV-3) [%]	growth at 10 µM (HL-60(TB)) [%]	growth at 10 µM (TK-10) [%]	growth at 10 µM (IGROV-1) [%]	growth at 10 µM (SNB-19) [%]	growth at 10 µM (UO-31) [%]	also measured
CC(=O)Nc1cc(CO)cc(NC(=O)c2ccccc2)c1	105	103	50.8	104	99.4	115	107	97.9	104	103	98.7	105	110	119	99.4	85.6	119	110	106	95.5	growth at 10 µM (SK-MEL-2): 111%; growth at 10 µM (NCI-H322M): 110%; growth at 10 µM (OVCAR-3): 118%; growth at 10 µM (OVCAR-8): 102%; growth at 10 µM (KM12): 116%; growth at 10 µM (SK-MEL-28): 109%; growth at 10 µM (SW-620): 106%; growth at 10 µM (NCI/ADR-RES): 105%; growth at 10 µM (SNB-75): 122%; growth at 10 µM (HCT-15): 107%; growth at 10 µM (NCI-H460): 104%; growth at 10 µM (A549): 100%; growth at 10 µM (PC-3): 101%; growth at 10 µM (EKVX): 103%; growth at 10 µM (SK-MEL-5): 105%; growth at 10 µM (MDA-MB-435): 105%; growth at 10 µM (HT-29): 109%; growth at 10 µM (RXF 393): 119%; growth at 10 µM (UACC-257): 104%; growth at 10 µM (RPMI-8226): 106%
CC(=O)Nc1cc(CO)cc(NC(=O)c2cccc(NC(=O)CCCN3CCOCC3)c2)c1	98.9	101	105	99.4	104	96.7	105	93.1	100	96	102	91.7	105	101	104	110	94	106	97.7	95.5	growth at 10 µM (SK-MEL-2): 97.8%; growth at 10 µM (NCI-H322M): 105%; growth at 10 µM (OVCAR-3): 145%; growth at 10 µM (OVCAR-8): 107%; growth at 10 µM (KM12): 135%; growth at 10 µM (SK-MEL-28): 115%; growth at 10 µM (SW-620): 108%; growth at 10 µM (NCI/ADR-RES): 107%; growth at 10 µM (SNB-75): 102%; growth at 10 µM (HCT-15): 103%; growth at 10 µM (NCI-H460): 108%; growth at 10 µM (A549): 101%; growth at 10 µM (PC-3): 102%; growth at 10 µM (EKVX): 113%; growth at 10 µM (SK-MEL-5): 104%; growth at 10 µM (MDA-MB-435): 103%; growth at 10 µM (HT-29): 106%; growth at 10 µM (RXF 393): 105%; growth at 10 µM (UACC-257): 107%; growth at 10 µM (RPMI-8226): 92.1%
CC(=O)Nc1cc(CO)cc(NC(=O)c2ccc(C(=O)Nc3cccc(NC(=O)CCCN(C)C)c3)cc2)c1	79	109	99.1	104	69.9	93.6	11	79.5	64.6	82.4	57.9	108	16.7	103	117	91.2	117	87.4	114	112	growth at 10 µM (SK-MEL-2): 91.8%; growth at 10 µM (NCI-H322M): 98.5%; growth at 10 µM (OVCAR-3): 119%; growth at 10 µM (OVCAR-8): 105%; growth at 10 µM (KM12): 83.1%; growth at 10 µM (SK-MEL-28): 85.3%; growth at 10 µM (SW-620): 98.2%; growth at 10 µM (NCI/ADR-RES): 107%; growth at 10 µM (SNB-75): 62.2%; growth at 10 µM (HCT-15): 105%; growth at 10 µM (NCI-H460): 90.3%; growth at 10 µM (A549): 108%; growth at 10 µM (PC-3): 98.6%; growth at 10 µM (EKVX): 95.5%; growth at 10 µM (SK-MEL-5): 77.7%; growth at 10 µM (MDA-MB-435): 70%; growth at 10 µM (HT-29): 59.4%; growth at 10 µM (RXF 393): 113%; growth at 10 µM (UACC-257): 88%; growth at 10 µM (RPMI-8226): 95.6%
CC(=O)Nc1cc(CO)cc(NC(=O)c2ccc(NC(=O)CCCN3CCOCC3)cc2)c1	104	106	98.3	97	105	95.6	108	93.4	98.3	98.7	99.5	99.8	96.7	97	104	106	93.1	126	99.4	86.6	growth at 10 µM (SK-MEL-2): 101%; growth at 10 µM (NCI-H322M): 107%; growth at 10 µM (OVCAR-3): 121%; growth at 10 µM (OVCAR-8): 105%; growth at 10 µM (KM12): 109%; growth at 10 µM (SK-MEL-28): 113%; growth at 10 µM (SW-620): 103%; growth at 10 µM (NCI/ADR-RES): 106%; growth at 10 µM (SNB-75): 92.5%; growth at 10 µM (HCT-15): 103%; growth at 10 µM (NCI-H460): 110%; growth at 10 µM (A549): 104%; growth at 10 µM (PC-3): 104%; growth at 10 µM (EKVX): 103%; growth at 10 µM (SK-MEL-5): 100%; growth at 10 µM (MDA-MB-435): 100%; growth at 10 µM (HT-29): 104%; growth at 10 µM (RXF 393): 114%; growth at 10 µM (UACC-257): 106%; growth at 10 µM (RPMI-8226): 93.6%
CC(=O)Nc1cc(CO)cc(NC(=O)c2ccc(C(=O)Nc3cc(CO)cc(NC(C)=O)c3)cc2)c1	98.6	106	103	103	112	94.9	106	94.1	103	92	101	99.5	106	97.4	101	107	103	103	102	97.1	growth at 10 µM (SK-MEL-2): 93.3%; growth at 10 µM (NCI-H322M): 103%; growth at 10 µM (OVCAR-3): 139%; growth at 10 µM (OVCAR-8): 107%; growth at 10 µM (KM12): 136%; growth at 10 µM (SK-MEL-28): 117%; growth at 10 µM (SW-620): 114%; growth at 10 µM (NCI/ADR-RES): 110%; growth at 10 µM (SNB-75): 102%; growth at 10 µM (HCT-15): 104%; growth at 10 µM (NCI-H460): 107%; growth at 10 µM (A549): 108%; growth at 10 µM (PC-3): 97.9%; growth at 10 µM (EKVX): 115%; growth at 10 µM (SK-MEL-5): 104%; growth at 10 µM (MDA-MB-435): 102%; growth at 10 µM (HT-29): 107%; growth at 10 µM (RXF 393): 103%; growth at 10 µM (UACC-257): 106%; growth at 10 µM (RPMI-8226): 94.5%
